From US8933103B2, “Pyridone derivatives” (Daiichi Sankyo Company, Limited, priority 2012, dated 2015)

Assays:
[1] = target: T1, AXL (fusion protein of amino acids 464-885 of the intracellular domain of human AXL with glutathione transferase) (Homo sapiens, UniProt P30530); test: Cell-Free Axl Kinase Inhibitory Activity
T1 sequence (P30530 464-885 isoform P30530-2): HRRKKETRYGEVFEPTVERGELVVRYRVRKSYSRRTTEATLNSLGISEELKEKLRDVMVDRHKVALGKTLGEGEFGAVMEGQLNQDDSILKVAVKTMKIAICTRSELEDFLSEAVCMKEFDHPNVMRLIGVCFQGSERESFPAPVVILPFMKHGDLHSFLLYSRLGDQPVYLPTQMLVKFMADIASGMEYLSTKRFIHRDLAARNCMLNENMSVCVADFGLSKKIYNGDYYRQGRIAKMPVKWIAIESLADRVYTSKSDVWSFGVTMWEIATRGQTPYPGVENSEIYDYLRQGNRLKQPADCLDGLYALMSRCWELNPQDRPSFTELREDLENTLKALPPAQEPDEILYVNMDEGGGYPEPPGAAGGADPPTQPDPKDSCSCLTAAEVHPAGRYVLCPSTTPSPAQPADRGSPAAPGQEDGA

[2] = target: T2, phosphorylated Axl (pAxl Y702) in NCI-H1299 cells (Homo sapiens, UniProt P30530); test: Intracellular Axl Phosphorylation Inhibitory Activity (pAxl, NCI-H1299 cells); format: cell-based; conditions: 1 h compound incubation, GAS6 stimulation 10 minutes, pAxl (Y702) level
T2 construct: endogenous in cells; host or cells: NCI-H1299
T2 sequence (P30530 26-894): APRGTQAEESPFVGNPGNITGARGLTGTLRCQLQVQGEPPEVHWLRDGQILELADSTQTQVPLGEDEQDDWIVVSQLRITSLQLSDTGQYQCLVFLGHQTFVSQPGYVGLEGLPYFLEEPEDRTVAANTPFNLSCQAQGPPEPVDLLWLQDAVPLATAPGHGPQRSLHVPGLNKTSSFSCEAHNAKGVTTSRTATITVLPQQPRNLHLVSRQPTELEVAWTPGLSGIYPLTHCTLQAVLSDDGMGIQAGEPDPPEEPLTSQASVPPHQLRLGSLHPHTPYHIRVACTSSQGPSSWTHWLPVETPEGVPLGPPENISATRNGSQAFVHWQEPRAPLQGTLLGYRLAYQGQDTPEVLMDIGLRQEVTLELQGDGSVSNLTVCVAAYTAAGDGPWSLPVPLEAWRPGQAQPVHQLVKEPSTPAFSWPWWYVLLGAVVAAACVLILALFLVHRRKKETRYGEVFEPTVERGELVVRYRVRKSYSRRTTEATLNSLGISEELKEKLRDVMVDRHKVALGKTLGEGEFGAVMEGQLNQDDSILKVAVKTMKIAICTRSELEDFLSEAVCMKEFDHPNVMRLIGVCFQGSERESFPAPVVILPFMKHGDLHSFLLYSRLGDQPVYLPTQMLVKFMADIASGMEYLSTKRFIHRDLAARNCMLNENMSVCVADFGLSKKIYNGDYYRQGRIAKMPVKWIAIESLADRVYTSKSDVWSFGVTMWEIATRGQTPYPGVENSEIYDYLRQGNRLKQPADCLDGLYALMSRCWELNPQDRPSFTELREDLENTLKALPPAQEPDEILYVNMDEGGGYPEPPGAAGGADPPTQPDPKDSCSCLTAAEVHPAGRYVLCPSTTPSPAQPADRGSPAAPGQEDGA
Method: A phosphorylated Axl (hereinafter pAxl) inhibitory test was performed using the human non-small-cell lung cancer-derived cell strain NCI-H1299.
On the following day, the medium was removed, 100 μl of fresh medium were added, and the cells were cultured at 37° C. in the presence of 5% CO2 for one day.
The test compound was dissolved in DMSO and diluted with medium to prepare a sample solution (DMSO concentration: 2%). Twenty-five microliters of medium or sample-added medium was added to each well (DMSO concentration: 0.4%), and the plate was incubated at 37° C. in the presence of 5% CO2 for one hour.
After stirring, the plate was incubated at 37° C. in the presence of 5% CO2 for 10 minutes.
The supernatant was discarded, and 0.1 ml of a 37% formalin solution diluted to 4% with phosphate buffer (PBS) (hereinafter “4% formalin solution”) was added to each well. The plate was allowed to stand at room temperature for 10 minutes.
Next, the 4% formalin solution was discarded, and 0.2 ml of a solution of Triton X-100 diluted to 0.1% with PBS (hereinafter “wash buffer”) was added. The wash buffer was discarded using a decanter, and excess moisture in the plate was removed on a paper towel.
Subsequently, […] NaN3 and H2O2 were added to the wash buffer at 0.1% (hereinafter “quenching buffer”), and 0.1 ml of the quenching buffer was added to each well. The plate was allowed to stand at room temperature for 15 minutes.
The quenching buffer was discarded, and 0.2 ml of wash buffer was added. The wash buffer was discarded using a decanter, and excess moisture in the plate was removed on a paper towel.
Skim milk (Nacalai Tesque) was added to the wash buffer at a final concentration of 5% (hereinafter “blocking buffer”), and 0.25 ml of the blocking buffer was added to each well. The plate was allowed to stand at room temperature for one hour.
After light stirring, the plate was incubated for 20 minutes. Luminescence was then measured by ARVO sx (PerkinElmer), and the pAxl (Y702) level was measured.
pAxl Inhibitory activity was determined by the following formula. Inhibition %=100−(A−B)×100/(T−B)
A: Measurement of the test compound
T: Luminescence value of the reaction solution with a compound not added

Row | IC50 [1] [nM] | IC50 [2] [nM] | Structure (SMILES)
1 | 10 to 20 | 100 to 500 | COc1ccnc(N)c1-c1ccc(NC(=O)c2cn(Cc3ccc(F)cc3)cc(C(=O)N3CCCC3)c2=O)cc1 [Example 84, N-[4-(2-Amino-4-methoxypyridin-3-yl)phenyl]-1-(4-fluorobenzyl)-4-oxo-5-(pyrrolidin-1-ylcarbonyl)-1,4-dihydropyridine-3-carboxamide]
2 | 1 to 10 | 50 to 100 | COc1ccc(-c2cnc(N)c(-c3ccc(NC(=O)c4cn(CC(F)(F)F)cc(-c5ccc(F)c(Br)c5)c4=O)cc3)c2)cc1OC [Example 89, N-{4-[2-Amino-5-(3,4-dimethoxyphenyl)pyridin-3-yl]phenyl}-5-(4-fluoro-3-bromophenyl)-4-oxo-1-(2,2,2-trifluoroethyl)-1,4-dihydropyridine-3-carboxamide]

Row | Structure (SMILES) | IC50 [1] [nM] | IC50 [2] [nM]
3 | CC(=O)N1C2C=C(c3cnc(N)c(-c4ccc(NC(=O)c5cn(CCF)cc(-c6ccc(F)cc6)c5=O)cc4)c3)CC1CC2 (stereo not drawn) [Example 81, N-{4-[5-(8-Acetyl-8-azabicyclo[3.2.1]oct-2-en-3-yl)-2-aminopyridin-3-yl]phenyl}-1-(2-fluoroethyl)-5-(4-fluorophenyl)-4-oxo-1,4-dihydropyridine-3-carboxamide] | 23 | 100 to 500
